{"source": "patent US8257742B2", "about": "“Bisphosphonates for treating endometriosis” (Yissum Research Development Company of the Hebrew …, priority 2005, dated 2012)", "origin": "cited, not measured here", "system": "endometriosis explants", "details": "in vivo"}
{"molecule": "C=CCn1c(=O)n([C@@H]2O[C@H](CO)[C@@H](O)[C@H]2O)c2nc(N)[nH]c(=O)c21", "note": "[loxoribine, Loxoribine]", "values": [{"measurement": "regression of endometriosis explants", "result": "Regression of endometriosis explants was observed"}]}
